We go through 28 compounds from US8846933B2, “N-link hydroxamic acid derivatives useful as antibacterial agents” (Pfizer Inc., priority 2009, dated 2014).

The subject of test [1] is Pseudomonas aeruginosa UI-18: Wild-type (PA-7). The test is described as follows: MIC determination (CLSI), strain PA-7. In kind it is cell-based. Particulars: strain PA-7; unit assumed. Summed up:
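MIC determined by broth dilution per CLSI M7-A7 guidelines with M100-S18 interpretive standards. Test organism: wild-type Pseudomonas aeruginosa UI-18, designated PA-7.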

Test [2] concerns Escherichia coli EC-1: VOGEL, mouse virulent. The test can be described thus: MIC determination (CLSI), strain EC-1. Particulars: strain EC-1; unit assumed. Type of test: cell-based. Summed up: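 The mouse-virulent VOGEL isolate of E. coli, EC-1, served as test organism. Minimum inhibitory concentration was measured by CLSI dilution methodology (M7-A7; M100-S18 standards).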

As to `COc1ccc(-c2ccn(CC[C@](C)(C(=O)NO)S(C)(=O)=O)c(=O)c2)c(Cl)c1` [Example 342, (2R)-4-[4-(2-chloro-4-methoxyphenyl)-2-oxopyridin-1(2H)-yl]-N-hydroxy-2-methyl-2-(methylsulfonyl)butanamide], the PA-7 (MIC) in test [1] was determined as 0.5 µg/mL. Moreover, the EC-1 (MIC) in test [2] came to 0.5 µg/mL.
In the case of `CC(C)(C#N)Cc1ccc(-c2ccn(CC[C@](C)(C(=O)NO)S(C)(=O)=O)c(=O)c2)cc1` [Example 343, (2R)-4-{4-[4-(2-cyano-2-methylpropyl)phenyl]-2-oxopyridin-1(2H)-yl}-N-hydroxy-2-methyl-2-(methylsulfonyl)butanamide], the PA-7 (MIC) in test [1] came to 2 µg/mL. This compound came in with an EC-1 (MIC) in test [2] of 8 µg/mL.
The like results for `C[C@@](CCn1ccc(-c2ccc(CCCO)c(F)c2)cc1=O)(C(=O)NO)S(C)(=O)=O` [Example 344, (2R)-4-{4-[3-fluoro-4-(3-hydroxypropyl)phenyl]-2-oxopyridin-1(2H)-yl}-N-hydroxy-2-methyl-2-(methylsulfonyl)butanamide] were, in that order, 2 µg/mL and 4 µg/mL.
On to `COc1ccc(-c2ccn(CC[C@](C)(C(=O)NO)S(C)(=O)=O)c(=O)c2)c(C)c1` [Example 345, (2R)-N-hydroxy-4-[4-(4-methoxy-2-methylphenyl)-2-oxopyridin-1(2H)-yl]-2-methyl-2-(methylsulfonyl)butanamide], for which, in test [1], the PA-7 (MIC) was found to be 4 µg/mL. The same compound showed an EC-1 (MIC) in test [2] of 4 µg/mL.
In test [1], `COc1ccc(-c2ccn(CC[C@](C)(C(=O)NO)S(C)(=O)=O)c(=O)c2)cc1C` [Example 346, (2R)-N-hydroxy-4-[4-(4-methoxy-3-methylphenyl)-2-oxopyridin-1(2H)-yl]-2-methyl-2-(methylsulfonyl)butanamide] registered a PA-7 (MIC) of 0.5 µg/mL. In test [2], this compound showed an EC-1 (MIC) of 0.5 µg/mL.
In test [1], `C[C@@](CCn1ccc(-c2ccc(CCC#N)cc2)cc1=O)(C(=O)NO)S(C)(=O)=O` [Example 347, (2R)-4-{4-[4-(2-cyanoethyl)phenyl]-2-oxopyridin-1(2H)-yl}-N-hydroxy-2-methyl-2-(methylsulfonyl)butanamide] gave a PA-7 (MIC) of 4 µg/mL. Besides, the EC-1 (MIC) in test [2] was 64 µg/mL.
In turn, `C[C@@](CCn1ccc(-c2ccc(OC[C@H]3CC[C@@H](O)CC3)c(F)c2)cc1=O)(C(=O)NO)S(C)(=O)=O` [Example 348, (2R)-4-[4-{3-fluoro-4-[(cis-4-hydroxycyclohexyl)methoxy]phenyl}-2-oxopyridin-1(2H)-yl]-N-hydroxy-2-methyl-2-(methylsulfonyl)butanamide] registered a PA-7 (MIC) in test [1] of 1 µg/mL. Moreover, in test [2], the EC-1 (MIC) came out at 0.25 µg/mL.
In the case of `CC1(O)CCC(Oc2ccc(-c3ccn(CC[C@](C)(C(=O)NO)S(C)(=O)=O)c(=O)c3)cc2F)CC1` (stereo partly drawn) [Example 349, (2R)-4-[4-{3-fluoro-4-[(4-hydroxy-4-methylcyclohexyl)oxy]phenyl}-2-oxopyridin-1(2H)-yl]-N-hydroxy-2-methyl-2-(methylsulfonyl)butanamide], in test [1], the PA-7 (MIC) stood at 4 µg/mL. In addition, the EC-1 (MIC) in test [2] was 0.5 µg/mL.
In test [1], `CC(C)(CO)c1ccc(-c2ccn(CC[C@](C)(C(=O)NO)S(C)(=O)=O)c(=O)c2)cc1` [Example 350, (2R)-N-hydroxy-4-{4-[4-(2-hydroxy-1,1-dimethylethyl)phenyl]-2-oxopyridin-1(2H)-yl}-2-methyl-2-(methylsulfonyl)butanamide] registered a PA-7 (MIC) of 16 µg/mL. In test [2], this compound registered an EC-1 (MIC) of 16 µg/mL.
In test [1], `C[C@@](CCn1ccc(-c2ccc(C3(O)CCC3)cc2)cc1=O)(C(=O)NO)S(C)(=O)=O` [Example 351, (2R)-N-hydroxy-4-{4-[4-(1-hydroxycyclobutyl)phenyl]-2-oxopyridin-1(2H)-yl}-2-methyl-2-(methylsulfonyl)butanamide] showed a PA-7 (MIC) of 16 µg/mL. The same compound gave an EC-1 (MIC) in test [2] of 16 µg/mL.
For `COC1(c2ccc(-c3ccn(CC[C@](C)(C(=O)NO)S(C)(=O)=O)c(=O)c3)cc2)CCC1` [Example 352, (2R)-N-hydroxy-4-{4-[4-(1-methoxycyclobutyl)phenyl]-2-oxopyridin-1(2H)-yl}-2-methyl-2-(methylsulfonyl)butanamide], in test [1], the PA-7 (MIC) was 8 µg/mL. This compound also came in with an EC-1 (MIC) in test [2] of 2 µg/mL.
`C[C@@](CCn1ccc(-c2c(F)cccc2F)cc1=O)(C(=O)NO)S(C)(=O)=O` [Example 353] came in with a PA-7 (MIC) in test [1] of 1 µg/mL. In test [2], the EC-1 (MIC) is 4 µg/mL.
Compound `C[C@@](CCn1ccc(-c2ccc(OC(F)(F)F)cc2F)cc1=O)(C(=O)NO)S(C)(=O)=O` [Example 354, (2R)-4-{4-[2-fluoro-4-(trifluoromethoxy)phenyl]-2-oxopyridin-1(2H)-yl}-N-hydroxy-2-methyl-2-(methylsulfonyl)butanamide] had a PA-7 (MIC) in test [1] of 0.5 µg/mL. The compound further displayed an EC-1 (MIC) in test [2] of 0.25 µg/mL.
Consider `C[C@@](CCn1ccc(-c2ccc(SCC#N)cc2)cc1=O)(C(=O)NO)S(C)(=O)=O` [Example 355, (2R)-4-[4-{4-[(cyanomethyl)thio]phenyl}-2-oxopyridin-1(2H)-yl]-N-hydroxy-2-methyl-2-(methylsulfonyl)butanamide], for which the PA-7 (MIC) in test [1] was 2 µg/mL. For the same compound, the EC-1 (MIC) in test [2] came to 4 µg/mL.
In the same order, the values of `Cc1cc(SCC#N)ccc1-c1ccn(CC[C@](C)(C(=O)NO)S(C)(=O)=O)c(=O)c1` [Example 356, (2R)-4-[4-{4-[(cyanomethyl)thio]-2-methylphenyl}-2-oxopyridin-1(2H)-yl]-N-hydroxy-2-methyl-2-(methylsulfonyl)butanamide] are 4 µg/mL and 16 µg/mL.
Turning to `CC(C#N)Sc1ccc(-c2ccn(CC[C@](C)(C(=O)NO)S(C)(=O)=O)c(=O)c2)cc1` (some centres unmarked) [Example 357], the PA-7 (MIC) in test [1] was found to be 1 µg/mL. Moreover, in test [2], the EC-1 (MIC) stood at 1 µg/mL.
Regarding `Cc1cc(-n2nccn2)ccc1-c1ccn(CC[C@](C)(C(=O)NO)S(C)(=O)=O)c(=O)c1` [Example 358, (2R)-N-hydroxy-2-methyl-2-(methylsulfonyl)-4-{4-[2-methyl-4-(2H-1,2,3-triazol-2-yl)phenyl]-2-oxopyridin-1(2H)-yl}butanamide], the PA-7 (MIC) in test [1] came to 1 µg/mL. Further, the EC-1 (MIC) in test [2] stood at 0.25 µg/mL.
In the case of `C[C@H](O)c1ccc2cc(-c3ccn(CC[C@](C)(C(=O)NO)S(C)(=O)=O)c(=O)c3)ccc2c1` [Example 360, (2R)-N-hydroxy-4-[4-{6-[(1S)-1-hydroxyethyl]-2-naphthyl}-2-oxopyridin-1(2H)-yl]-2-methyl-2-(methylsulfonyl)butanamide], the PA-7 (MIC) in test [1] is 1 µg/mL. For the same compound, the EC-1 (MIC) in test [2] came to 0.5 µg/mL.
With `CCOc1ccc(-c2ccn(CC[C@](C)(C(=O)NO)S(C)(=O)=O)c(=O)c2)c(F)c1` [Example 361, (2R)-4-[4-(4-ethoxy-2-fluorophenyl)-2-oxopyridin-1(2H)-yl]-N-hydroxy-2-methyl-2-(methylsulfonyl)butanamide], in test [1], the PA-7 (MIC) came out at 2 µg/mL. Also, in test [2], the EC-1 (MIC) turned out to be 0.5 µg/mL.
Compound `CC(C)(C#N)c1ccc(-c2ccn(CC[C@](C)(C(=O)NO)S(C)(=O)=O)c(=O)c2)cc1` [Example 362, (2R)-4-{4-[4-(1-cyano-1-methylethyl)phenyl]-2-oxopyridin-1(2H)-yl}-N-hydroxy-2-methyl-2-(methylsulfonyl)butanamide] registered a PA-7 (MIC) in test [1] of 4 µg/mL. The compound also had an EC-1 (MIC) in test [2] of 16 µg/mL.
In the same order, the values of `Cn1ccnc1-c1ccc(-c2ccn(CC[C@](C)(C(=O)NO)S(C)(=O)=O)c(=O)c2)cc1` [Example 363, (2R)-N-hydroxy-2-methyl-4-{4-[4-(1-methyl-1H-imidazol-2-yl)phenyl]-2-oxopyridin-1(2H)-yl}-2-(methylsulfonyl)butanamide] are 64 µg/mL and 32 µg/mL.
In turn, `C[C@@](CCn1ccc(-c2ccc(-n3ccnn3)cc2)cc1=O)(C(=O)NO)S(C)(=O)=O` [Example 364, (2R)-N-hydroxy-2-methyl-2-(methylsulfonyl)-4-{2-oxo-4-[4-(1H-1,2,3-triazol-1-yl)phenyl]pyridin-1(2H)-yl}butanamide] gave a PA-7 (MIC) in test [1] of 16 µg/mL. Further, in test [2], the EC-1 (MIC) is 16 µg/mL.
`C[C@@](CCn1ccc(-c2ccc(OCCC[C@@H](O)CO)cc2)cc1=O)(C(=O)NO)S(C)(=O)=O` [Example 365, (2R)-4-[4-(4-{[(4R)-4,5-dihydroxypentyl]oxy}phenyl)-2-oxopyridin-1(2H)-yl]-N-hydroxy-2-methyl-2-(methylsulfonyl)butanamide] displayed a PA-7 (MIC) in test [1] of 4 µg/mL. In addition, in test [2], the EC-1 (MIC) turned out to be 4 µg/mL.
Consider `C[C@@](CCn1ccc(-c2ccc(OCCC(O)CO)cc2)cc1=O)(C(=O)NO)S(C)(=O)=O` (stereo partly drawn) [Example 366, (2R)-4-{4-[4-(3,4-dihydroxybutoxy)phenyl]-2-oxopyridin-1(2H)-yl}-N-hydroxy-2-methyl-2-(methylsulfonyl)butanamide], for which the PA-7 (MIC) in test [1] worked out at 16 µg/mL. For the same compound, the EC-1 (MIC) in test [2] was determined as 16 µg/mL.
In the case of `C[C@@](CCn1ccc(-c2ccc(-c3ncc[nH]3)cc2)cc1=O)(C(=O)NO)S(C)(=O)=O` [Example 367, (2R)-N-hydroxy-4-{4-[4-(1H-imidazol-2-yl)phenyl]-2-oxopyridin-1(2H)-yl}-2-methyl-2-(methylsulfonyl)butanamide], the PA-7 (MIC) in test [1] is greater than 64 µg/mL. Moreover, the EC-1 (MIC) in test [2] turned out to be 8 µg/mL.
In the case of `Cc1nccn1-c1ccc(-c2ccn(CC[C@](C)(C(=O)NO)S(C)(=O)=O)c(=O)c2)cc1` [Example 368, (2R)-N-hydroxy-2-methyl-4-{4-[4-(2-methyl-1H-imidazol-1-yl)phenyl]-2-oxopyridin-1(2H)-yl}-2-(methylsulfonyl)butanamide], the PA-7 (MIC) in test [1] amounted to 16 µg/mL. In test [2], this compound registered an EC-1 (MIC) greater than 64 µg/mL.
In test [1], `Cc1cc(-c2ccc(-c3ccn(CC[C@](C)(C(=O)NO)S(C)(=O)=O)c(=O)c3)cc2)[nH]n1` [Example 369] showed a PA-7 (MIC) of 4 µg/mL. Moreover, in test [2], the EC-1 (MIC) was found to be 2 µg/mL.
Take `Cc1cc(-c2ccc(-c3ccn(CC[C@](C)(C(=O)NO)S(C)(=O)=O)c(=O)c3)cc2)no1` [Example 370, (2R)-N-hydroxy-2-methyl-4-{4-[4-(5-methylisoxazol-3-yl)phenyl]-2-oxopyridin-1(2H)-yl}-2-(methylsulfonyl)butanamide]: the PA-7 (MIC) in test [1] was 0.5 µg/mL. In addition, the EC-1 (MIC) in test [2] was 0.125 µg/mL.
